Measurements as given in PubChem BioAssay (NCI).
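In this assay, cells in 96-well plates receive the compound at five concentrations for 48 hours. Endpoints are linearly interpolated between the surrounding concentrations. GI50: concentration for 50% inhibition of growth. TGI denotes the concentration required for complete inhibition of growth.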

Key:
Assay in all cases: growth of human tumour cells (NCI), 48 h
SK-MEL-28 melanoma = system: SK-MEL-28 melanoma
HOP-18 NSCLC = system: HOP-18 NSCLC
NCI-H23 lung = system: NCI-H23 lung
K-562 leukemia = system: K-562 leukemia
KM20L2 colon = system: KM20L2 colon
CAKI-1 renal = system: CAKI-1 renal
KM12 colon = system: KM12 colon
UO-31 renal = system: UO-31 renal
RPMI-8226 leukemia = system: RPMI-8226 leukemia
BT-549 breast = system: BT-549 breast

Row | SMILES | TGI (SK-MEL-28 melanoma) | TGI (HOP-18 NSCLC) | TGI (NCI-H23 lung) | TGI (K-562 leukemia) | TGI (KM20L2 colon) | TGI (CAKI-1 renal) | TGI (KM12 colon) | TGI (UO-31 renal) | TGI (RPMI-8226 leukemia) | GI50 (SK-MEL-28 melanoma) | GI50 (HOP-18 NSCLC) | GI50 (NCI-H23 lung) | GI50 (K-562 leukemia) | GI50 (KM20L2 colon) | GI50 (CAKI-1 renal) | GI50 (KM12 colon) | GI50 (UO-31 renal) | GI50 (RPMI-8226 leukemia) | TGI (BT-549 breast)
1 | NC(=O)C(=O)N/N=C1\C(=O)N(c2ccc(Cl)cc2Cl)C(=O)C1C(=O)Nc1ccc(Cl)cc1Cl (configuration not stated) | > 100 µM | > 100 µM | > 100 µM | > 100 µM | > 100 µM | > 100 µM | > 100 µM | > 100 µM | > 100 µM | – | – | – | – | – | – | – | – | – | –
2 | N.N.N.N.N.NC(=O)c1nn[n-]n1.[Cl-].[Co+3] | > 100 µM | > 100 µM | > 100 µM | > 100 µM | > 100 µM | > 100 µM | > 100 µM | > 100 µM | > 100 µM | > 100 µM | > 100 µM | > 100 µM | > 100 µM | > 100 µM | > 100 µM | > 100 µM | > 100 µM | > 100 µM | –
3 | CSC(=Nc1nnc(-c2ccc([N+](=O)[O-])cc2)s1)SC | > 100 µM | > 71.6 µM | 98.6 µM | > 100 µM | > 100 µM | 38.4 µM | > 100 µM | 71.5 µM | > 100 µM | – | – | – | – | – | – | – | – | – | > 100 µM
4 | CN(/N=C/c1cccc2cccnc12)c1ccc([N+](=O)[O-])cc1[N+](=O)[O-] | > 100 µM | > 100 µM | 50.1 µM | > 100 µM | > 100 µM | 64.9 µM | > 100 µM | 90.1 µM | > 100 µM | – | – | – | – | – | – | – | – | – | 59.7 µM
5 | C/C(=N\NC(=S)N1CC2CCC(CC2)C1)c1nccs1 | 19.3 µM | 7.95 µM | 13 µM | 9.9 µM | 1.35 µM | 14.7 µM | 17.6 µM | 1.52 µM | 20.8 µM | – | – | – | – | – | – | – | – | – | 20 µM
6 | O=C(O)CN(CC(=O)O)Cc1cc(C#Cc2ccc(C#Cc3ccccc3)cc2)cc(CN(CC(=O)O)CC(=O)O)n1 | > 100 µM | > 100 µM | > 89.7 µM | > 67.5 µM | > 76.3 µM | 61.9 µM | > 92 µM | > 79.7 µM | 48.8 µM | – | – | – | – | – | – | – | – | – | 66.6 µM
